Results: the PolyMetriX glass transition set
± gives the standard deviation of the reports.

SMILES | glass transition temperature [°C]
*CC(CCl)(CCl)CO* (repeat unit) [Poly(oxy-2,2-dichloromethyltrimethylene) ] | -8 ± 10
*CCCCCCCCOc1ccc(/C=C2\CCC/C(=C\c3ccc(O*)cc3)C2=O)cc1 (repeat unit) | 90.00
*OC(C)C(*)=O (repeat unit) [poly(l - lactic acid)] | 51.4 ± 43
*c1ccc(C2C3C(=O)N(c4ccc(N5C(=O)C6ON(C)C(*)C6C5=O)cc4)C(=O)C3ON2C)cc1 (repeat unit) | 67.00
*CCCCCCOC(=O)C(CCCCCCCCCCBr)C(=O)OCCCCCCOc1ccc(-n2on2-c2ccc(O*)cc2)cc1 (repeat unit) | 16.00
*CC(c1ccccc1)C1C(=O)N(CCCN(CC)c2ccc(/N=N/c3ccc([N+](=O)[O-])cc3)c(C)c2)C(=O)C1* (repeat unit) | 137.00
*OC(=O)C(NC(=O)CCCCC(=O)NC(C(=O)OC1COC2C(*)COC12)C(C)CC)C(C)CC (repeat unit) | 102.00
*c1ccc(Oc2ccc(N3C(=O)c4cccc(Oc5c(Oc6cccc7c6C(=O)N(*)C7=O)cc(C(C)(C)C)cc5C(C)(C)C)c4C3=O)cc2)cc1 (repeat unit) | 238.00
*c1ccc2c(c1)C(=O)N(c1ccc(C(=O)Nc3ccc(C(c4ccc(NC(=O)c5ccc(N6C(=O)c7ccc(C(*)(C(F)(F)F)C(F)(F)F)cc7C6=O)cc5)cc4)(C(F)(F)F)C(F)(F)F)cc3)cc1)C2=O (repeat unit) | 351.00
*Oc1cccc(Oc2ccc(C(=O)c3ccc(P(=O)(c4ccccc4)c4ccc(C(=O)c5ccc(*)cc5)cc4)cc3)cc2)c1 (repeat unit) | 201.00
*c1cc(C(c2ccc(O)c(-n3c(=O)c4cc5c(=O)n(*)c(=O)c5cc4c3=O)c2)(C(F)(F)F)C(F)(F)F)ccc1O (repeat unit) | 350.00
*c1cc(OCCCCCCCCCCCCCCCC)cc(N2C(=O)c3ccc(Oc4ccc5c(c4)C(=O)N(*)C5=O)cc3C2=O)c1 (repeat unit) | 159.00
*c1cc(OCCCCCCCCCCCC)cc(N2C(=O)c3ccc(Oc4ccc5c(c4)C(=O)N(*)C5=O)cc3C2=O)c1 (repeat unit) | 162.00
*CC(*)(C)C(=O)OCCCCCCCCCCOc1ccc(/N=N/c2ccc([N+](=O)[O-])cc2)cc1 (repeat unit) | 55.00
*Oc1ccc(S(=O)(=O)c2ccc(Oc3c(C)cc(C(C)(C)c4cc(C)c(*)c(C)c4Br)c(Br)c3C)cc2)cc1 (repeat unit) | 275.40
*SC1CCCCC1* (repeat unit) | -43.00
*CC(*)C(=O)OCCOCC(F)(F)C(F)(F)C(F)(F)F (repeat unit) | -45.00

Other lines, results leading:

glass transition temperature [°C] | SMILES
318.00 | *C(=O)c1ccc2ncc(-c3ccc(-c4cnc5ccc(*)cc5n4)cc3)nc2c1 (repeat unit)
345.00 | *c1c(C)cc(C)c(N2C(=O)c3ccc(Oc4ccc(Oc5ccc6c(c5)C(=O)N(*)C6=O)cc4)cc3C2=O)c1C (repeat unit)
364.00 | *c1ccc(-c2ccc(-c3ccc(-n4c(=O)c5c(C(F)(F)F)c6c(=O)n(*)c(=O)c6c(C(F)(F)F)c5c4=O)cc3)cc2)cc1 (repeat unit)
117.00 | *CCCCCCCCOc1cccc(NC(=O)c2cccc(C(=O)Nc3cccc(O*)c3)c2)c1 (repeat unit)
370.00 | *c1ccc(-c2c(-c3ccccc3)nc3ccc(-c4ccc5nc(-c6ccccc6)c(*)c(-c6ccccc6)c5c4)cc3c2-c2ccccc2)cc1 (repeat unit)
160.00 | *Oc1ccc(C(=O)NNC(=O)c2ccc(C(=O)NNC(=O)c3ccc(OC(=O)c4cccc(C(*)=O)c4)cc3)cc2Oc2ccccc2)cc1 (repeat unit)
53.00 | *CCCOc1cccc(C(=O)OC(=O)c2cccc(O*)c2)c1 (repeat unit)
127.00 | *Oc1ccc(C2(c3ccc(OC(=O)c4cccc(C(*)=O)c4)cc3)CCCCC2)cc1 (repeat unit)
